Where two headings read alike, the source gives them in different places.
Legend:
FR-β = molecular target: T1, FR-β (Homo sapiens, UniProt P14207); experiment: Intact cell competitive binding of [3H]-folic acid to FR-β (CHO-β cells); conditions: for FR-β binding affinity relative to folic acid: [3H]-folic acid displacement, 10 min at 4° C.
T1 construct: expressed in transfected cells; host or cells: Chinese Hamster Ovary cells (CHO-β / CHO-FR-β)
Protocol: (§1) An intact cell binding assay for competitive binding of [^3H]-folic acid and novel anti-folate drugs to FR-β and FR-α was performed essentially as described previously. See Mol. Pharmacol. 1995; 48: […] and Cancer Res. 1995; 55(17): 3795-3802 (both Westerhof et al.). Briefly, CHO-β cells (FR-β transfected Chinese Hamster Ovary cells) and KB cells (FR-α expressing cells) were detached by incubation in PBS+1 mM EDTA. Detached cells were suspended in ice-cold HEPES-buffered saline (140 mM NaCl, 20 mM HEPES, 6 mM KCl, 2 mM MgCl2, 6 mM D-glucose, pH 7.4 with NaOH) to a cell concentration of 3×10^6 and 1×10^6 cells/ml, respectively. One ml of cell suspension was added to a series of Eppendorf tubes containing […] [^3H]-folic acid (specific radioactivity: 2,000 dpm/μmol) in the absence or presence of increasing concentrations of natural folate or folate antagonists. Following 10 minutes at 4° C., cells were centrifuged in an Eppendorf centrifuge (30 s, 10,000 rpm), the supernatant was aspirated and cell pellets were resuspended in 200 μl water and analysed for radioactivity (Optima Gold scintillation fluid, United Technologies, Packard, Brussels, Belgium). Non-specific binding of [^3H] […] For comparison, data for affinities of the RFC for natural folates and folate antagonists were presented from previous studies. See. Mol Pharmacol 1995; 48: 459-471 Westerhof et al.) and Cancer Res. 2005; 65(24): 11721-11728 (Gibbs et al.).

[1] = tested on: human monocytic-macrophage THP1 cells; experiment: Cell proliferation inhibition, THP1 cells; format: cell-based; conditions: read-out: Growth inhibitory effects, IC50
Protocol: In other experiments human monocytic-macrophage THP1 cells were tested for antiproliferative effects of folate antagonists. To this end, 1 ml of cell suspension containing 1.25×10^5 cells were plated in individual wells of a 24-well tissue culture plate and incubated with 8 concentrations (with 2.5-fold increments) of folate antagonist drugs. After 72 hours drug exposure cell counts were performed with a haemocytometer and viability was checked by trypan blue exclusion.

CHO/WT cells = experiment: Cell proliferation inhibition, CHO-WT cells; format: cell-based, Chinese Hamster; conditions: 72 hours
Protocol: (§2) Cell proliferation inhibition assay CHO-WT and CHO-FRβ cells were seeded in individual wells of a 24-well tissue culture plate at a density of 1×10^4/cm^2. […] After 72 hours incubation, cells were harvested by trypsinization and counted for cell viability as described before. See Mol. Pharmacol. 1999; 55(4): 761-769 (Jansen et al.).

CHO/FR-β cells = experiment: Cell proliferation inhibition, CHO-FR-β cells; format: cell-based, Chinese Hamster; conditions: for Effect of addition of folic acid on growth inhibitory activity: 1 μM folic acid to block FR
Protocol: as §2

[2] = molecular target: T2, RFC (reduced folate carrier) (Homo sapiens, UniProt P41440); conditions: cited from earlier work
T2 sequence (P41440 1-591): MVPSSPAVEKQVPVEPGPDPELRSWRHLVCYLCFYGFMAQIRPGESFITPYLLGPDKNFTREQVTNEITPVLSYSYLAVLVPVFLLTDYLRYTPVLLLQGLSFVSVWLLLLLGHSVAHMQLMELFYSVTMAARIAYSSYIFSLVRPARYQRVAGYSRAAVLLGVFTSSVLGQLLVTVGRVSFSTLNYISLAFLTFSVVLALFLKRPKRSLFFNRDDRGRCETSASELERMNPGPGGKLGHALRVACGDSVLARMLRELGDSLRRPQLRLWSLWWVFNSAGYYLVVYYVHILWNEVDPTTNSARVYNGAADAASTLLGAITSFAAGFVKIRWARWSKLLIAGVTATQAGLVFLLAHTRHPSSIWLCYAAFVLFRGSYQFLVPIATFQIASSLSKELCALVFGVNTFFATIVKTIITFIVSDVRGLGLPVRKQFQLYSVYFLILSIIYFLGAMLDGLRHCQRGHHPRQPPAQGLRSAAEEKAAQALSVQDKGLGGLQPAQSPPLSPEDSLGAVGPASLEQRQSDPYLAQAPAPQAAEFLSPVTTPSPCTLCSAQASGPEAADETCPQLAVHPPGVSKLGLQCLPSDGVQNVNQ

FR-α = molecular target: T3, FR-α (Homo sapiens, UniProt P15328); experiment: Intact cell competitive binding of [3H]-folic acid to FR-α (KB cells); conditions: FRα (KB) versus FR-β (CHO-β)
T3 construct: KB cells (FR-α expressing cells); host or cells: KB cells
T3 sequence (P15328 25-234): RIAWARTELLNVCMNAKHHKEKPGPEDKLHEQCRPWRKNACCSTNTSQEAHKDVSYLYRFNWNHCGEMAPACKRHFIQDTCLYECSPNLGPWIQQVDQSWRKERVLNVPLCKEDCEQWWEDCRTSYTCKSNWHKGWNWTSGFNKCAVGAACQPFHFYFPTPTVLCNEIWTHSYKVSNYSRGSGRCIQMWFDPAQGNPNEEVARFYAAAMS
Protocol: as §1, with “Mol Pharmacol 1995; 48: 459-471 Westerhof et al.) and Cancer Res. 2005; 65(24): 11721-11728 (Gibbs et al.).” left out

[3] = tested on: macrophages (3A5) in synovial sublining layer; experiment: Synovial tissue immunohistochemistry of RA patients treated with MTX; format: in vivo, human; conditions: after 4 months of MTX, 219 before treatment, p=0.14
Protocol: In this study we analysed synovial tissue biopsies derived from the knee joints of 15 RA-patients with active disease before treatment and after 4 months of treatment with MTX (starting dose of MTX: 7.5 mg/week; increasing stepwise to 15 mg/week over 12 weeks). Active disease was defined as ≧6 swollen or tender joints and levels of moderate or worse on the physician's and patient's assessments of disease activity (Disease Activity Score-28; DAS-28). All patients had at least 1 clinically involved knee joint. Low dose prednisone (<10 mg/day) and concomitant stable doses of nonsteroidal anti-inflammatory drug (NSAID) treatment were allowed. None of the patients ever used MTX before enrolling the study. In patients taking other DMARDs, the treatment was terminated following a washout phase of 28 days. […]
Immunohistochemical staining of cryostat sections (4 μm) of synovial tissue biopsies from RA patients and controls was performed using a 3-step immunoperoxidase method as described previously. […] Stained sections were analysed for FR-β, 3A5 and CD3 expression by digital image analysis, as described previously. […] Positive cells were evaluated by analysing 18 consecutive hpfs, scoring numbers of positive cells in the intimal lining layer and the synovial sublining per mm^2.

T1 sequence (P14207 17-230): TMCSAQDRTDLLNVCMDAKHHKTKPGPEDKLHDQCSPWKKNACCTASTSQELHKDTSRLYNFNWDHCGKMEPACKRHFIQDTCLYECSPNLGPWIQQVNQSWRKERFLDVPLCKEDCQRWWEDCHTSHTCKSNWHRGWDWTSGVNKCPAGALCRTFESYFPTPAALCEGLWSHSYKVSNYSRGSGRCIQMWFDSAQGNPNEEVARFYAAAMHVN

Compound	FR-β binding affinity (FR-β)	FR-β binding affinity relative to folic acid (FR-β)	IC50 ([1]; Homo sapiens, THP-1, 72 h) [nM]	further results
C#CCN(c1ccc(C(=O)N[C@@H](CCC(=O)N[C@H](CCC(=O)O)C(=O)O)C(=O)O)cc1)C1CCc2cc3nc(CO)[nH]c(=O)c3cc21 (mixture of isomers) [BGC 945]	relatively high binding affinity	89 % of folic acid	3630 ± 350	Extracellular concentration inducing growth inhibition of CHO/WT cells (CHO/WT cells): > 1000 nM; Effect of addition of folic acid on growth inhibitory activity (CHO/FR-β cells): completely abrogated; Concentration inducing growth inhibition of CHO/FR-β cells (CHO/FR-β cells; 72 hours): 10 to 50 nM; Differential in activity between control CHO cells and FR-β transfected cells (CHO/FR-β cells; CHO/WT versus CHO/FR-β): largest differential in activity; Affinity for RFC [2]: poor affinity for RFC
C#CCN(c1ccc(C(=O)N[C@@H](CCC(=O)N[C@H](CCC(=O)O)C(=O)O)C(=O)O)cc1)[C@H]1CCc2cc3nc(CO)[nH]c(=O)c3cc21 [(6S)-BGC 945]	–	46 % of folic acid	–	–
Nc1nc2c(c(=O)[nH]1)SC(CCc1ccc(C(=O)N[C@@H](CCC(=O)O)C(=O)O)s1)CN2 (stereo partly shown) [AG2034]	moderate to high binding affinities	54 % of folic acid	3.2 ± 0.2	FRα binding affinity, fold higher than FR-β (FR-α): 2.5 fold; Growth inhibition of CHO/WT cells (CHO/WT cells): displayed a growth inhibitory potential; Abrogation of growth inhibitory effects by FR-β blocking (folic acid) and RFC blocking (LV) (CHO/FR-β cells; folic acid 1 μM or leucovorin 20 nM, CHO/WT and CHO/FR-β): only partial
C#CCN(Cc1cc2c(=O)[nH]c(C)nc2cc1C)c1ccc(C(=O)N[C@@H](CCc2nn[nH]n2)C(=O)O)c(F)c1 [BGC 9331]	–	–	8.7 ± 0.8	–
C#CN(Cc1cc2c(=O)[nH]c(N)nc2cc1C)c1ccc(C(=O)N[C@@H](CCC(=O)CN[C@H](CCCC(=O)O)C(=O)O)C(=O)O)c(F)c1 [CB300635]	relatively high binding affinity	161 % of folic acid	4850 ± 285	Effect of addition of folic acid on growth inhibitory activity (CHO/FR-β cells): abrogated activity; Growth inhibition of CHO/FR-β cells (CHO/FR-β cells; 72 hours): not markedly potent; Affinity for RFC [2]: poor affinity for RFC
Nc1nc2c(c(=O)[nH]1)CC(CCc1ccc(C(=O)N[C@@H](CCC(=O)O)C(=O)O)cc1)CN2 (stereo partly shown) [DDATHF, 5,10-dideazatetrahydrofolate]	moderate to high binding affinities	27 % of folic acid	9.8 ± 0.8	FRα binding affinity, fold higher than FR-β (FR-α): 2.5 fold
Cc1nc2ccc3ccc(CNc4ccc5c(c4)CN([C@@H](CCC(=O)O)C(=O)O)C5=O)cc3c2c(=O)[nH]1 [GW1843]	relatively high binding affinity	–	1.6 ± 0.1	–
CN(Cc1cnc2nc(N)nc(N)c2n1)c1ccc(C(=O)N[C@@H](CCC(=O)O)C(=O)O)cc1 [MTX, methotrexate]	–	–	7.1 ± 0.5	FR-β binding affinity, fold lower than for folic acid (FR-β): approximately 50 fold; Median numbers of macrophages after MTX treatment [3]: 119 positive cell counts in the synovial sublining layer/mm^2
Nc1nc(N)c2nc(CNc3ccc(C(=O)N[C@@H](CCCNC(=O)c4ccccc4C(=O)O)C(=O)O)cc3)cnc2n1 [PT523]	–	0.3 % of folic acid	2.2 ± 0.3	–
Cc1c(CNc2ccc(C(=O)N[C@@H](CCCNC(=O)c3ccccc3C(=O)O)C(=O)O)cc2)cnc2nc(N)nc(N)c12 [PT644]	affinity comparable to MTX	–	1 ± 0.4	–
Cc1nc2ccc(CN(C)c3ccc(C(=O)N[C@@H](CCC(=O)O)C(=O)O)s3)cc2c(=O)[nH]1 [Raltitrexed]	–	–	2.4 ± 0.5	–
Pemetrexed	–	–	–	IC50 ([1]; RPMI-1640 with 2.2 μM folic acid, 72 hours drug exposure, mean ± S.D. of 3 experiments): 10.7 ± 2.2 nM

Source: patent US8466111B2, “Cyclopenta{G}quinazoline derivatives for the treatment of rheumatoid arthritis or acute myeloid leukaemia” (BTG International Limited, priority 2008, dated 2013)
